Values quoted from earlier work in patent US20230065964A1, “COMPOSITION FOR ENHANCING UROLITHIN PRODUCTION IN A HUMAN SUBJECT” (Migalis ApS, priority 2020, published 2023).

What was measured:
[1] = test system: skeletal muscle of humans; settings: 28 days oral administration, 500 mg/d and 1000 mg/d
Chaenorhabditis elegans = settings: for Pharyngeal pumping rate and mobility: during aging

| SMILES | mitochondrial biogenesis in the skeletal muscle [1] | Pharyngeal pumping rate and mobility (Chaenorhabditis elegans) | mitochondrial biogenesis (Chaenorhabditis elegans; older worms) | mitophagy (Chaenorhabditis elegans; throughout the duration of the treatment) | Lean muscle mass (old mice) | greater level of spontaneous exercise (muscle function) (old mice) [%] | greater running endurance (endurance capacity) (old mice) [%] | expression of autophagy and mitophagy transcripts (old mice; molecular level) |
| --- | --- | --- | --- | --- | --- | --- | --- | --- |
| O=c1oc2cc(O)ccc2c2ccc(O)cc12 [Urolithin A, urolithin A] | stimulated | improved | activated | activated mitophagy | did not increase | 57 | 42 | general tendency for a higher expression |
| O=c1oc2cc(O)ccc2c2cc(O)c(O)cc12 [urolithin C] |  | mild to no benefit |  |  |  |  |  |  |
| O=c1oc2c(O)c(O)ccc2c2cc(O)c(O)cc12 [urolithin D] |  | mild to no benefit |  |  |  |  |  |  |
